Entries after “also recorded” stand apart in the source; their conditions may differ. Read-outs that look alike come from different tables or passages of the source.
Experiments:
[1] = system: primary human CD4 T-lymphocytes; experiment: Cell hyperproliferation in primary T cells (CFSE staining, mitotic index); type: cell-based; conditions: for anti-proliferative activity (in words) / mitotic index %: SPPs 10 μM, Imatinib 10 μM; for anti-proliferative activity (in words): compared with HU 100 μM, HU+ddI or untreated control; for mitotic index %: % of not treated control (100%), day 10; for Anti-proliferative capacity: class symbol, Table 6
Description: We built up an experimental model using primary T cells to study the activity of the compounds on induced hyperproliferation of cells, which is a characteristic of both chronic viral diseases and cancer including HIV and leukemia.
(§1) Unstimulated (quiescent/resting, day 0 to 5) primary human CD4 T-lymphocytes were obtained by magnetic bead separation from healthy, normal donors. After five days in culture, cells were activated with PHA (5 μg/ml) to induce hyperproliferation then, at day 7, IL-2 (20 U/ml) was added (stimulated, day 6 to 10). All available compounds were tested at a concentration of 10 μM. […] At day 10, cells were harvested. Proliferation of T cells, cultured as described above, was studied by staining the cells with carboxyfluorescein diacetate-succinimidyl ester (CFSE) at day 0 (immediately after infection). For data analysis, the mitotic index (M) was used, calculating the sum of mitotic events at each proliferation cycle. To extract a relative number, M was normalized to the total number of cells acquired using the equation M=Σ[(Xn(T)−Xn(T)/2^n)], that gives the number of mitotic events from the experimentally obtained values of the proportion of T cells under each division peak n (Xn) and the total T cells (T). To study the effect of the compounds on apoptosis T cells were cultured as described above and at day 10 cells were stained with Annexin V and 7-AAD, in order to determine the percentage of total apoptotic events.

[2] = system: primary human CD4 T-lymphocytes; experiment: Apoptosis in primary CD4 T cells (Annexin V and 7-AAD staining); type: cell-based; conditions: SPPs 10 μM; for apoptotic effect (in words): compared with HU 100 μM, HU+ddI or untreated control; for apoptosis %: total apoptotic events compared to untreated control, day 10, Imatinib 10 μM, HU 100 μM, ddI 2 μM
Description: as §1
We determined the capacity of the compounds to affect the percentages of apoptotic events after 10 days of treatment in primary CD4 T cells.

HIV-1 NL 4.3 [3] = experiment: HIV-1 replication in quiescent CD4 T cells (p24 Ag ELISA); type: cell-based; conditions: for inhibition at 10 µM: Human immunodeficiency virus 1, CD4+ T, quiescent cells, read-out: reduction of HIV-1 p24 production / inhibition of HIV replication compared to untreated control; for anti-HIV activity in quiescent cells (in words) / HIV quiescent cells (percentage p24 compared to the untreated control): SPPs 10 μM; for anti-HIV activity in quiescent cells (in words): compared with HU 100 μM, HU+ddI or untreated control; for HIV quiescent cells (percentage p24 compared to the untreated control): quiescent CD4 T cells, day 10, HU 100 μM, HU 100 μM+ddI 2 μM; for Antiviral activity in quiescent cells: class symbol, Table 6
Description: Unstimulated (quiescent/resting, day 0 to 5) human CD4 T-lymphocytes, obtained by magnetic bead separation from healthy, normal donors, were infected with HIV-1 NL 4.3. After five days in culture, cells were stimulated with PHA (5 μg/ml) to induce proliferation, and then, at day 7, IL-2 (20 U/ml) was added (stimulated, day 6 to 10). All available compounds were tested at a concentration of 10 μM. HU 100 μM and HU 100 μM+ddI 2 μM were also employed as comparators and the negative control was left untreated. At day 10, cells and supernatants were harvested and HIV-1 p24 Ag was measured by ELISA. HIV replication was expressed as percentage p24 compared to the untreated control.

HIV-1 NL 4.3 [4] = experiment: HIV-1 replication in activated T cells (PBMC, p24 Ag ELISA); type: cell-based; conditions: for inhibition at 10 µM: Human immunodeficiency virus 1, T-cell, read-out: inhibition of p24 production / HIV replication compared to untreated control; for inhibition at 10 µM / HIV activated cells (% p24 compared to not treated control): activated T cells; for anti-HIV activity in activated T cells (in words): SPPs 10 μM, compared with HU 100 μM, HU+ddI or untreated control; for HIV activated cells (% p24 compared to not treated control): 7 days, SPPs and Imatinib 10 μM, HU 100 μM, ddI 2 μM; for Antiviral activity in activated cells: class symbol, Table 6
Description: The experimental setup described below allows us to detect direct antiviral activity of a compound.
Human PBMC, obtained from healthy, normal donors, were stimulated for two days with PHA 5 μg/ml. Then cells were infected with HIV-1 NL 4.3, IL-2 was added (20 U/ml), cells were plated (10^5 cells per well in 200 μl) and drug treatment started. […] The control was left untreated. After 7 days of incubation at 37° C. supernatants were harvested and HIV-1 p24 Ag was measured by ELISA.

[5] = system: Human peripheral blood mononuclear cells (PBMC); conditions: 7 days

Row | SMILES | more anti-proliferative than HU+ddI ([1]; 10 μM, spider graph FIG. 3) [%] | anti-proliferative activity (in words) [1] | decrease/inhibition of cell proliferation compared to not treated control ([1]; SPPs and Imatinib 10 μM, HU 100 μM) [%] | apoptotic effect (in words) [2] | inhibition at 10 µM (HIV-1 NL 4.3 [3]) [%] | anti-HIV activity in quiescent cells (in words) (HIV-1 NL 4.3 [3]) | inhibition at 10 µM (HIV-1 NL 4.3 [4]) [%] | anti-HIV activity in activated T cells (in words) (HIV-1 NL 4.3 [4]) | % viability ([5]; human, 10 μM) [%] | mitotic index % ([1]; HU 100 μM) [%] | apoptosis % [2] [%] | HIV quiescent cells (percentage p24 compared to the untreated control) (HIV-1 NL 4.3 [3]) [%] | HIV activated cells (% p24 compared to not treated control) (HIV-1 NL 4.3 [4]) [%] | % viability ([5]; % of not treated control (100%), SPPs 10 μM, Imatinib 10 μM, HU 100 μM, HU 100 μM+ddI 2 μM) [%] | Anti-proliferative capacity [1] | Antiviral activity in quiescent cells (HIV-1 NL 4.3 [3]) | Antiviral activity in activated cells (HIV-1 NL 4.3 [4])
1 | ClC(Cn1ncc2c(NCc3ccccc3)ncnc21)c1ccccc1 (centres unmarked) [VS1-010, N-benzyl-1-(2-chloro-2-phenylethyl)-1H-pyrazolo[3,4-d]pyrimidin-4-amine] | 20 | increased anti-proliferative capacity compared to 100 μM HU | 99 | induced apoptosis; also recorded: more proapoptotic; also recorded: slight increase | 89 | active as antivirals; also recorded: good activity against HIV | 88 | active as antivirals; also recorded: good activity against HIV | 40.9 ± 35.8 | – | – | – | – | – | – | – | –
2 | OCCNc1nc(NCc2ccccc2)c2cnn(C=Cc3ccccc3)c2n1 [VS1-015] | – | – | – | – | – | – | – | better anti-HIV activity than HU | – | 55.4 ± 6.0 | 63.9 ± 9.2 | 7.6 ± 2.8 | 15.3 ± 2.4 | 82.0 ± 5.8 | – | – | –
3 | CSc1nc(NCc2ccccc2)c2cnn(CC(Cl)c3ccccc3)c2n1 (centres unmarked) [VS1-003, 1-(2-chloro-2-phenylethyl)-6-(methylthio)-N-benzyl-1H-pyrazolo[3,4-d]pyrimidin-4-amine] | – | slightly less potent; also recorded: little inferior anti-proliferative capacity compared to HU; also recorded: somewhat less than that of VS1-002 | – | no effect on apoptosis; also recorded: did not affect the percentage of apoptotic events; also recorded: did not induce apoptosis | 95 | about as effective as VS1-002 | 76 | slightly less potent; also recorded: slightly inferior anti-HIV capacity; also recorded: about as effective as VS1-002 | 103.4 ± 4.0 | – | – | – | – | – | ++ (good (++, 50 to 70% activity)) | +++ (excellent (+++, greater than 70% activity)) | +++ (excellent (+++, greater than 70% activity))
4 | CSc1nc(NCc2ccc(F)cc2)c2cnn(CC(Cl)c3ccccc3)c2n1 (centres unmarked) [VS1-017] | – | poor activity | – | – | – | – | – | poor activity | – | 34.5 ± 6.7 | 130.0 ± 19.3 | 38.7 ± 44.5 | 63.4 ± 31.2 | – | – | – | –
5 | C(=Cn1ncc2c(NC3CCCCC3)ncnc21)c1ccccc1 [VS1-012] | – | – | – | – | – | – | – | better anti-HIV activity than HU | – | 68.8 ± 10.7 | 46.3 ± 9.1 | 10.9 ± 5.0 | 18.6 ± 2.9 | – | – | – | –
6 | CSc1nc(N2CCOCC2)c2cnn(CC(Cl)c3ccccc3)c2n1 (centres unmarked) [VS1-030] | – | greater than 100 μM HU and 10 μM Imatinib | – | proapoptotic | – | – | – | – | – | 15.5 ± 4.8 | 174.4 ± 16.4 | 17.4 ± 10.8 | 34.5 ± 13.4 | – | – | – | –
7 | C(=Cn1ncc2c(NCc3ccccc3)ncnc21)c1ccccc1 [VS1-013] | – | – | – | – | – | – | – | – | – | 85.6 ± 3.6 | 121.3 ± 14.1 | 63.3 ± 26.0 | 116.4 ± 21.1 | – | – | – | –
8 | C(=Cn1ncc2c(NCCc3ccccc3)ncnc21)c1ccccc1 [VS1-014] | – | – | – | – | – | – | – | – | – | 76.9 ± 2.7 | 135.2 ± 19.3 | 74.3 ± 22.8 | 92.4 ± 24.3 | – | – | – | –
9 | BrC(Cn1ncc2c(N3CCCCCC3)ncnc21)c1ccccc1 (centres unmarked) [VS1-018] | – | poor activity | – | proapoptotic | – | – | – | poor activity | – | 42.4 ± 21.8 | 176.0 ± 22.5 | 11.5 ± 3.2 | 93.6 ± 28.3 | – | – | – | –
10 | CCCNc1nc(SC)nc2c1cnn2CC(Cl)c1ccccc1 (centres unmarked) [VS1-031] | – | greater or equal to that of 100 μM HU | – | did not induce apoptosis | – | effective against HIV | – | effective against HIV | – | 23.9 ± 18.4 | 114.4 ± 39.9 | 19.1 ± 1.8 | 31.6 ± 21.7 | – | +++ (excellent (+++, greater than 70% activity)) | +++ (excellent (+++, greater than 70% activity)) | ++ (good (++, 50 to 70% activity))
11 | CCSc1nc(NCc2ccccc2)c2cnn(CC(Cl)c3ccccc3)c2n1 (centres unmarked) [VS1-020] | – | as anti-proliferative or even better than HU | – | proapoptotic | – | effective against HIV | – | effective against HIV | – | 21.9 ± 13.0 | 174.7 ± 25.9 | 9.2 ± 3.7 | 26.3 ± 6.1 | – | – | – | –
12 | CCCCNc1ncnc2c1cnn2CC(Cl)c1ccccc1 (centres unmarked) [VS1-008] | – | good activity against proliferation (even better than HU though 10 times less concentrated) | – | did not induce apoptosis | – | good activity | – | good activity | – | 8.1 ± 1.8 | 115.8 ± 39.4 | 11.2 ± 7.7 | 11.8 ± 5.6 | – | +++ (excellent (+++, greater than 70% activity)) | +++ (excellent (+++, greater than 70% activity)) | +++ (excellent (+++, greater than 70% activity))
13 | CSc1nc(Nc2cccc(Cl)c2)c2cnn(CC(Cl)c3ccc(F)cc3)c2n1 (centres unmarked) [VS1-022] | – | as anti-proliferative or even better than HU | – | proapoptotic | – | effective against HIV | – | effective against HIV | – | 10.4 ± 11.4 | 178.0 ± 25.7 | 5.4 ± 3.1 | 37.1 ± 19.8 | – | – | – | –
14 | CSc1nc(NCc2ccccc2)c2cnn(C=Cc3ccccc3)c2n1 [VS1-019] | – | poor activity | – | – | – | – | – | poor activity | – | 81.3 ± 18.9 | 94.0 ± 11.2 | 46.7 ± 31.3 | 89.3 ± 25.5 | – | – | – | –
